Experimental data published in PMC11079024, “Identification of a family of species-selective complex I inhibitors as potential anthelmintics” (Nature Communications, 2024).

Molecular target: C. elegans (N2) complex I (NADH:ubiquinone oxidoreductase) (Caenorhabditis elegans, UniProt P24887+Q93873+Q94360)
Assay: biochemical
Assay type: biochemical
Conditions: Dose 0.0001 µM; read-out: C. elegans mitochondrial complex I activity
Summary of the method: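 Activity expressed as percent of solvent control. Complex I rate came from DCIP reduction at 600 nm (initial linear slope, 15 min) with NADH and decylubiquinone as substrates, plus antimycin A and KCN, in pH 7.5 KPi/BSA buffer. Isolated, thrice freeze-thawed mitochondria used at 0.2 mg/mL.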

Sequence of C. elegans (N2) complex I (NADH:ubiquinone oxidoreductase) (Q94360 17-199): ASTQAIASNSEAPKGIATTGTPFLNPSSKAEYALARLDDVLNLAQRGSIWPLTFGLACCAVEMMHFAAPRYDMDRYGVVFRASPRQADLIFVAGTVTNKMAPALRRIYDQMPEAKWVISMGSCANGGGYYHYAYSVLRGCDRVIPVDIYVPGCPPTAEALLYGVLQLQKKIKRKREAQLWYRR
Sequence of C. elegans (N2) complex I (NADH:ubiquinone oxidoreductase) (P24887 whole entry): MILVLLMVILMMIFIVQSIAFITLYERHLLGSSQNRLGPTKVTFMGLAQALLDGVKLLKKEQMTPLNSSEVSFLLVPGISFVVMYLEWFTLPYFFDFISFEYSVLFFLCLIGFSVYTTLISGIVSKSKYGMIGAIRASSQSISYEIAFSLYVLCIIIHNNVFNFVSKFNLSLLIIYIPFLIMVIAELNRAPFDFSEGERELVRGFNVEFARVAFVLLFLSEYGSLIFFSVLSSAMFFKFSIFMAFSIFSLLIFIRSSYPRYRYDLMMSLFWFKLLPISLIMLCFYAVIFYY
Sequence of C. elegans (N2) complex I (NADH:ubiquinone oxidoreductase) (Q93873 31-482): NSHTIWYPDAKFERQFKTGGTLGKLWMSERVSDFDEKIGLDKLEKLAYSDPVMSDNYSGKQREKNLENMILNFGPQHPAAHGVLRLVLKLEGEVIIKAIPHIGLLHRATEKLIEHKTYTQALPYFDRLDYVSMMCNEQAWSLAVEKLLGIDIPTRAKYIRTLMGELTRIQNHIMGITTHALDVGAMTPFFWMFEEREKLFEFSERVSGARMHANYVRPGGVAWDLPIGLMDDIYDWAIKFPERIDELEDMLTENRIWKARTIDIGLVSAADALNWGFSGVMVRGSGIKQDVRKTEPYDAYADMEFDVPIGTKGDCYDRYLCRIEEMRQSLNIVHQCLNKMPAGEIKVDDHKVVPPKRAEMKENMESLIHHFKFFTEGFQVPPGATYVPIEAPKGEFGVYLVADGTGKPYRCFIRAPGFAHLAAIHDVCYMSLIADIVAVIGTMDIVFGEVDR

Row | SMILES | activity at 0.0001 µM [%]
1 | Clc1ccc(Cn2cnc3ccccc32)c(Cl)c1 [Compound 6750659] | 89.4
2 | Cc1nc2ccccc2n1Cc1ccc(Cl)c(Cl)c1 [Compound 5655567] | 86.1

Same assay, conditions: Dose 0.0005 µM; read-out: C. elegans mitochondrial complex I activity

Row | SMILES | activity at 0.0005 µM [%]
3 | Clc1ccc(Cn2cnc3ccccc32)c(Cl)c1 [Compound 6750659] | 104
4 | Cc1nc2ccccc2n1Cc1ccc(Cl)c(Cl)c1 [Compound 5655567] | 92.1

Same assay, conditions: Dose 0.001 µM; read-out: C. elegans mitochondrial complex I activity

Row | SMILES | activity at 0.001 µM [%]
5 | Clc1ccc(Cn2cnc3ccccc32)c(Cl)c1 [Compound 6750659] | 101
6 | Cc1nc2ccccc2n1Cc1ccc(Cl)c(Cl)c1 [Compound 5655567] | 93.5

Same assay, conditions: Dose 0.0025 µM; read-out: C. elegans mitochondrial complex I activity

Row | SMILES | activity at 0.0025 µM [%]
7 | Clc1ccc(Cn2cnc3ccccc32)c(Cl)c1 [Compound 6750659] | 110
8 | Cc1nc2ccccc2n1Cc1ccc(Cl)c(Cl)c1 [Compound 5655567] | 93.8

Same assay, conditions: Dose 0.005 µM; read-out: C. elegans mitochondrial complex I activity

Row | SMILES | activity at 0.005 µM [%]
9 | Clc1ccc(Cn2cnc3ccccc32)c(Cl)c1 [Compound 6750659] | 103
10 | Cc1nc2ccccc2n1Cc1ccc(Cl)c(Cl)c1 [Compound 5655567] | 90.5

Same assay, conditions: Dose 0.013 µM; read-out: C. elegans mitochondrial complex I activity

Row | SMILES | activity at 0.013 µM [%]
11 | Clc1ccc(Cn2cnc3ccccc32)c(Cl)c1 [Compound 6750659] | 98.1
12 | Cc1nc2ccccc2n1Cc1ccc(Cl)c(Cl)c1 [Compound 5655567] | 90.4

Same assay, conditions: Dose 0.025 µM; read-out: C. elegans mitochondrial complex I activity

Row | SMILES | activity at 0.025 µM [%]
13 | Clc1ccc(Cn2cnc3ccccc32)c(Cl)c1 [Compound 6750659] | 98.4
14 | Cc1nc2ccccc2n1Cc1ccc(Cl)c(Cl)c1 [Compound 5655567] | 78.8

Same assay, conditions: Dose 0.063 µM; read-out: C. elegans mitochondrial complex I activity

Row | SMILES | activity at 0.063 µM [%]
15 | Clc1ccc(Cn2cnc3ccccc32)c(Cl)c1 [Compound 6750659] | 84.8
16 | Cc1nc2ccccc2n1Cc1ccc(Cl)c(Cl)c1 [Compound 5655567] | 76.6

Same assay, conditions: Dose 0.125 µM; read-out: C. elegans mitochondrial complex I activity

Row | SMILES | activity at 0.125 µM [%]
17 | Clc1ccc(Cn2cnc3ccccc32)c(Cl)c1 [Compound 6750659] | 79.5
18 | Cc1nc2ccccc2n1Cc1ccc(Cl)c(Cl)c1 [Compound 5655567] | 72.5

Same assay, conditions: Dose 0.313 µM; read-out: C. elegans mitochondrial complex I activity

Row | SMILES | activity at 0.313 µM [%]
19 | Clc1ccc(Cn2cnc3ccccc32)c(Cl)c1 [Compound 6750659] | 62.1
20 | Cc1nc2ccccc2n1Cc1ccc(Cl)c(Cl)c1 [Compound 5655567] | 39.7

Same assay, conditions: Dose 0.625 µM; read-out: C. elegans mitochondrial complex I activity

Row | SMILES | activity at 0.625 µM [%]
21 | Clc1ccc(Cn2cnc3ccccc32)c(Cl)c1 [Compound 6750659] | 45.6
22 | Cc1nc2ccccc2n1Cc1ccc(Cl)c(Cl)c1 [Compound 5655567] | 49.3

Same assay, conditions: Dose 1.5 µM; read-out: C. elegans mitochondrial complex I activity

Row | SMILES | activity at 1.5 µM [%]
23 | Clc1ccc(Cn2cnc3ccccc32)c(Cl)c1 [Compound 6750659] | 24.9
24 | Cc1nc2ccccc2n1Cc1ccc(Cl)c(Cl)c1 [Compound 5655567] | 25.2

Same assay, conditions: Dose 3 µM; read-out: C. elegans mitochondrial complex I activity

Row | SMILES | activity at 3 µM [%]
25 | Clc1ccc(Cn2cnc3ccccc32)c(Cl)c1 [Compound 6750659] | 16.1
26 | Cc1nc2ccccc2n1Cc1ccc(Cl)c(Cl)c1 [Compound 5655567] | 11.5

Same assay, conditions: Dose 15 µM; read-out: C. elegans mitochondrial complex I activity

Row | SMILES | activity at 15 µM [%]
27 | Clc1ccc(Cn2cnc3ccccc32)c(Cl)c1 [Compound 6750659] | 4.66
28 | Cc1nc2ccccc2n1Cc1ccc(Cl)c(Cl)c1 [Compound 5655567] | 0.44

Same assay, conditions: Dose 37.5 µM; read-out: C. elegans mitochondrial complex I activity

Row | SMILES | activity at 37.5 µM [%]
29 | Clc1ccc(Cn2cnc3ccccc32)c(Cl)c1 [Compound 6750659] | 3.82
30 | Cc1nc2ccccc2n1Cc1ccc(Cl)c(Cl)c1 [Compound 5655567] | 0.7

Same assay, conditions: Dose 75 µM; read-out: C. elegans mitochondrial complex I activity

Row | SMILES | activity at 75 µM [%]
31 | Clc1ccc(Cn2cnc3ccccc32)c(Cl)c1 [Compound 6750659] | 5.12
32 | Cc1nc2ccccc2n1Cc1ccc(Cl)c(Cl)c1 [Compound 5655567] | 0.75

Same assay, conditions: in vitro complex I dose response on C. elegans mitochondria; average of at least two biological replicates; fit in R (DRC); read-out: IC50 C. elegans complex I

Row | SMILES | IC50 [nM]
33 | Clc1ccc(Cn2cnc3ccccc32)c(Cl)c1 [Compound 6750659] | 450
34 | C=CCn1c(C(C)c2ccc(CC(C)C)cc2)nc2ccccc21 (centres unmarked) [STL020755] | 2270
35 | Cc1nc2ccccc2n1Cc1ccc(Cl)c(Cl)c1 [Compound 5655567] | 470

Same assay, conditions: log10 of IC50 in µM; C. elegans mitochondria

Row | SMILES | Log IC50 C. elegans complex I [µM]
36 | Clc1ccc(Cn2cnc3ccccc32)c(Cl)c1 [Compound 6750659] | -0.35
37 | C=CCn1c(C(C)c2ccc(CC(C)C)cc2)nc2ccccc21 (centres unmarked) [STL020755] | 0.36
38 | Cc1nc2ccccc2n1Cc1ccc(Cl)c(Cl)c1 [Compound 5655567] | -0.33

Same assay, conditions: wild-type (N2) mitochondria; read-out: C. elegans Complex I IC50

Row | SMILES | IC50 [nM]
39 | Clc1ccc(Cn2cnc3ccccc32)c(Cl)c1 [Compound 6750659] | 450
40 | C=CCn1c(C(C)c2ccc(CC(C)C)cc2)nc2ccccc21 (centres unmarked) [STL020755] | 2270
41 | Cc1nc2ccccc2n1Cc1ccc(Cl)c(Cl)c1 [Compound 5655567] | 470

Same assay, conditions: wild-type C. elegans mitochondria; estimated from fitted dose-response curves; read-out: C. elegans Complex I IC50

Row | SMILES | IC50 [nM]
42 | Clc1ccc(Cn2cnc3ccccc32)c(Cl)c1 [Compound 6750659] | 450
43 | C=CCn1c(C(C)c2ccc(CC(C)C)cc2)nc2ccccc21 (centres unmarked) [STL020755] | 2270
44 | Cc1nc2ccccc2n1Cc1ccc(Cl)c(Cl)c1 [Compound 5655567] | 470

System: L1 wild-type C. elegans
Assay: not given
Conditions: 50 μM compound; […]; hit = relative motility below 0.25 3 hours after removal of KCN

Row | SMILES | Screen "Hit"
45 | C=CCn1c(C(C)c2ccc(CC(C)C)cc2)nc2ccccc21 (centres unmarked) [STL020755] | Y (hits were identified as compounds that reduced relative motility below 0.25 (75% reduction))

Same assay, conditions: 50 μM; […]; KCN survival assay; hit = relative motility below 0.25

Row | SMILES | Screen "Hit"
46 | Clc1ccc(Cn2cnc3ccccc32)c(Cl)c1 [Compound 6750659] | Y (hits were identified as compounds that reduced relative motility below 0.25 (75% reduction))
47 | Cc1nc2ccccc2n1Cc1ccc(Cl)c(Cl)c1 [Compound 5655567] | Y (hits were identified as compounds that reduced relative motility below 0.25 (75% reduction))

Same assay, conditions: Dose 0.2 µM; mean of at least three biological replicates

Row | SMILES | C. elegans KCN Survival
48 | Clc1ccc(Cn2cnc3ccccc32)c(Cl)c1 [Compound 6750659] | 0.888
49 | Cc1nc2ccccc2n1Cc1ccc(Cl)c(Cl)c1 [Compound 5655567] | 0.934

Same assay, conditions: Dose 0.39 µM

Row | SMILES | C. elegans KCN Survival
50 | Clc1ccc(Cn2cnc3ccccc32)c(Cl)c1 [Compound 6750659] | 0.896
51 | Cc1nc2ccccc2n1Cc1ccc(Cl)c(Cl)c1 [Compound 5655567] | 0.972

Same assay, conditions: Dose 1.56 µM

Row | SMILES | C. elegans KCN Survival
52 | Clc1ccc(Cn2cnc3ccccc32)c(Cl)c1 [Compound 6750659] | 0.908
53 | Cc1nc2ccccc2n1Cc1ccc(Cl)c(Cl)c1 [Compound 5655567] | 0.973

Same assay, conditions: Dose 3.13 µM

Row | SMILES | C. elegans KCN Survival
54 | Clc1ccc(Cn2cnc3ccccc32)c(Cl)c1 [Compound 6750659] | 0.544
55 | Cc1nc2ccccc2n1Cc1ccc(Cl)c(Cl)c1 [Compound 5655567] | 0.953

Same assay, conditions: Dose 6.25 µM

Row | SMILES | C. elegans KCN Survival
56 | Clc1ccc(Cn2cnc3ccccc32)c(Cl)c1 [Compound 6750659] | 0.267
57 | Cc1nc2ccccc2n1Cc1ccc(Cl)c(Cl)c1 [Compound 5655567] | 0.756

Same assay, conditions: Dose 12.5 µM

Row | SMILES | C. elegans KCN Survival
58 | Clc1ccc(Cn2cnc3ccccc32)c(Cl)c1 [Compound 6750659] | 0.023
59 | Cc1nc2ccccc2n1Cc1ccc(Cl)c(Cl)c1 [Compound 5655567] | 0.219

Same assay, conditions: Dose 25 µM

Row | SMILES | C. elegans KCN Survival
60 | Clc1ccc(Cn2cnc3ccccc32)c(Cl)c1 [Compound 6750659] | 0.000
61 | Cc1nc2ccccc2n1Cc1ccc(Cl)c(Cl)c1 [Compound 5655567] | 0.111

Same assay, conditions: Dose 50 µM

Row | SMILES | C. elegans KCN Survival
62 | Clc1ccc(Cn2cnc3ccccc32)c(Cl)c1 [Compound 6750659] | 0.000
63 | Cc1nc2ccccc2n1Cc1ccc(Cl)c(Cl)c1 [Compound 5655567] | 0.120

Same assay, conditions: Dose 100 µM

Row | SMILES | C. elegans KCN Survival
64 | Clc1ccc(Cn2cnc3ccccc32)c(Cl)c1 [Compound 6750659] | 0.000
65 | Cc1nc2ccccc2n1Cc1ccc(Cl)c(Cl)c1 [Compound 5655567] | 0.176

System: not listed separately
Assay: in vitro
Conditions: human, HEK293 Cell Viability Assay LC50, HEK293 cells; estimated from fitted dose-response curves; mean of at least two biological replicates

Row | SMILES | CC50 at 2 days [nM]
66 | Clc1ccc(Cn2cnc3ccccc32)c(Cl)c1 [Compound 6750659] | 72700
67 | C=CCn1c(C(C)c2ccc(CC(C)C)cc2)nc2ccccc21 (centres unmarked) [STL020755] | 49500
68 | Cc1nc2ccccc2n1Cc1ccc(Cl)c(Cl)c1 [Compound 5655567] | 64400

Same assay, conditions: human, HEK293 cells (Flp-In-293), HEK293 viability, Dose 3.13 µM

Row | SMILES | viability at 2 days, 3.13 µM [%]
69 | Clc1ccc(Cn2cnc3ccccc32)c(Cl)c1 [Compound 6750659] | 95.5
70 | Cc1nc2ccccc2n1Cc1ccc(Cl)c(Cl)c1 [Compound 5655567] | 100

Same assay, conditions: human, HEK293 cells (Flp-In-293), HEK293 viability, Dose 6.25 µM

Row | SMILES | viability at 2 days, 6.25 µM [%]
71 | Clc1ccc(Cn2cnc3ccccc32)c(Cl)c1 [Compound 6750659] | 100
72 | Cc1nc2ccccc2n1Cc1ccc(Cl)c(Cl)c1 [Compound 5655567] | 100

Same assay, conditions: human, HEK293 cells (Flp-In-293), HEK293 viability, Dose 12.5 µM

Row | SMILES | viability at 2 days, 12.5 µM [%]
73 | Clc1ccc(Cn2cnc3ccccc32)c(Cl)c1 [Compound 6750659] | 100
74 | Cc1nc2ccccc2n1Cc1ccc(Cl)c(Cl)c1 [Compound 5655567] | 100

Same assay, conditions: human, HEK293 cells (Flp-In-293), HEK293 viability, Dose 25 µM

Row | SMILES | viability at 2 days, 25 µM [%]
75 | Clc1ccc(Cn2cnc3ccccc32)c(Cl)c1 [Compound 6750659] | 100
76 | Cc1nc2ccccc2n1Cc1ccc(Cl)c(Cl)c1 [Compound 5655567] | 88.9

Same assay, conditions: human, HEK293 cells (Flp-In-293), HEK293 viability, Dose 50 µM

Row | SMILES | viability at 2 days, 50 µM [%]
77 | Clc1ccc(Cn2cnc3ccccc32)c(Cl)c1 [Compound 6750659] | 76
78 | Cc1nc2ccccc2n1Cc1ccc(Cl)c(Cl)c1 [Compound 5655567] | 72.1

Same assay, conditions: human, HEK293 cells (Flp-In-293), HEK293 viability, Dose 100 µM

Row | SMILES | viability at 2 days, 100 µM [%]
79 | Clc1ccc(Cn2cnc3ccccc32)c(Cl)c1 [Compound 6750659] | 19.4
80 | Cc1nc2ccccc2n1Cc1ccc(Cl)c(Cl)c1 [Compound 5655567] | 15.5
